From the supplement of paper PMC10307832

Assays:
Assay in all cases: relative viability (nuclei count vs DMSO), 5 days (fraction); higher = more cells survive
Vorinostat + Trametinib = compound: O=C(CCCCCCC(=O)Nc1ccccc1)NO [Vorinostat] + CC(=O)Nc1cccc(-n2c(=O)n(C3CC3)c(=O)c3c(Nc4ccc(I)cc4F)n(C)c(=O)c(C)c32)c1 [Trametinib] (partner 0.02 µM)
In short: (§1)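 Five library-drug doses in √10 steps were combined with a fixed anchor-drug dose, or a single drug was given alone, by pin tool to lung cancer cell lines in 1536-well plates the day after seeding. Nuclei were stained and counted after 5 days. Relative viability is the nuclei count in treated wells over that in vehicle wells, taken as the median of duplicate plates.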

Vorinostat + Phenformin = compound: O=C(CCCCCCC(=O)Nc1ccccc1)NO [Vorinostat] + N=C(N)NC(=N)NCCc1ccccc1 [Phenformin] (partner 250 µM)
In short: as §1

Vorinostat + Foretinib = compound: O=C(CCCCCCC(=O)Nc1ccccc1)NO [Vorinostat] + COc1cc2c(Oc3ccc(NC(=O)C4(C(=O)Nc5ccc(F)cc5)CC4)cc3F)ccnc2cc1OCCCN1CCOCC1 [Foretinib] (partner 0.25 µM)
In short: as §1

Vorinostat + Alpelisib = compound: O=C(CCCCCCC(=O)Nc1ccccc1)NO [Vorinostat] + Cc1nc(NC(=O)N2CCC[C@H]2C(N)=O)sc1-c1ccnc(C(C)(C)C(F)(F)F)c1 [Alpelisib] (partner 2 µM)
In short: as §1

Vorinostat + Tozasertib = compound: O=C(CCCCCCC(=O)Nc1ccccc1)NO [Vorinostat] + Cc1cc(Nc2cc(N3CCN(C)CC3)nc(Sc3ccc(NC(=O)C4CC4)cc3)n2)n[nH]1 [Tozasertib] (partner 0.1 µM)
In short: as §1

Cell Line | relative viability (Vorinostat + Trametinib; first compound 0.253 µM) | relative viability (Vorinostat + Trametinib; first compound 0.8 µM) | relative viability (Vorinostat + Trametinib; first compound 2.53 µM) | relative viability (Vorinostat + Trametinib; first compound 8 µM) | relative viability (Vorinostat + Phenformin; first compound 0.253 µM) | relative viability (Vorinostat + Phenformin; first compound 0.8 µM) | relative viability (Vorinostat + Phenformin; first compound 2.53 µM) | relative viability (Vorinostat + Phenformin; first compound 8 µM) | relative viability (Vorinostat + Foretinib; first compound 0.253 µM) | relative viability (Vorinostat + Foretinib; first compound 0.8 µM) | relative viability (Vorinostat + Foretinib; first compound 2.53 µM) | relative viability (Vorinostat + Foretinib; first compound 8 µM) | relative viability (Vorinostat + Alpelisib; first compound 0.253 µM) | relative viability (Vorinostat + Alpelisib; first compound 0.8 µM) | relative viability (Vorinostat + Alpelisib; first compound 2.53 µM) | relative viability (Vorinostat + Alpelisib; first compound 8 µM) | relative viability (Vorinostat + Tozasertib; first compound 0.253 µM) | relative viability (Vorinostat + Tozasertib; first compound 0.8 µM) | relative viability (Vorinostat + Tozasertib; first compound 2.53 µM) | relative viability (Vorinostat + Tozasertib; first compound 8 µM)
CAL-12T | 0.433 | 0.499 | 0.223 | 0.0898 | 0.685 | 0.562 | 0.312 | 0.0876 | 1.34 | 1.14 | 0.721 | 0.119 | 1.18 | 1.07 | 0.462 | 0.0781 | 0.446 | 0.246 | 0.162 | 0.109
NCI-H2009 | 0.336 | 0.311 | 0.237 | 0.119 | 0.545 | 0.496 | 0.319 | 0.144 | 1.28 | 1.22 | 0.716 | 0.143 | 1.24 | 1 | 0.633 | 0.187 | 0.776 | 0.574 | 0.295 | 0.133
EMC-BAC-2 | 0.836 | 0.687 | 0.292 | 0.154 | 0.523 | 0.473 | 0.248 | 0.163 | 1.02 | 0.977 | 0.4 | 0.172 | 0.88 | 0.745 | 0.409 | 0.113 | 0.199 | 0.202 | 0.149 | 0.144
ABC-1 |  |  |  |  | 0.254 | 0.307 | 0.183 | 0.156 | 1.07 | 0.834 | 0.358 | 0.102 | 1.02 | 0.636 | 0.354 | 0.161 | 0.203 | 0.198 | 0.18 | 0.112
LK-2 | 0.893 | 0.496 | 0.167 | 0.0907 | 0.778 | 0.321 | 0.197 | 0.126 | 1.03 | 0.896 | 0.28 | 0.137 | 1.07 | 0.847 | 0.234 | 0.125 | 0.179 | 0.178 | 0.157 | 0.125
LC-2-ad | 0.936 | 0.776 | 0.435 | 0.221 | 0.568 | 0.461 | 0.221 | 0.133 | 0.984 | 0.681 | 0.268 | 0.145 | 0.816 | 0.644 | 0.0538 | 0.0781 | 0.418 | 0.303 | 0.217 | 0.147
ChaGo-K-1 | 0.973 | 0.792 | 0.5 | 0.193 | 0.551 | 0.538 | 0.45 | 0.183 | 1 | 0.863 | 0.559 | 0.189 |  |  |  |  | 0.221 | 0.213 | 0.191 | 0.164
201T | 0.734 | 0.735 | 0.69 | 0.267 | 0.478 | 0.446 | 0.406 | 0.236 | 1.25 | 0.983 | 0.511 | 0.165 | 0.965 | 0.982 | 0.751 | 0.309 | 0.742 | 0.534 | 0.334 | 0.203
NCI-H1563 |  |  |  |  | 0.771 | 0.727 | 0.556 | 0.492 | 0.999 | 0.833 | 0.574 | 0.52 | 0.93 | 0.8 | 0.642 | 0.555 |  |  |  | 
RERF-LC-KJ | 0.897 | 0.732 | 0.308 | 0.201 | 0.453 | 0.394 | 0.284 | 0.288 | 1 | 0.791 | 0.743 | 0.248 | 0.862 | 0.898 | 0.457 | 0.234 | 0.442 | 0.318 | 0.262 | 0.213
NCI-H2342 | 0.703 | 0.774 | 0.685 | 0.484 | 0.561 | 0.653 | 0.573 | 0.375 | 0.975 | 1.07 | 0.587 | 0.385 |  |  |  |  | 0.436 | 0.322 | 0.335 | 0.262
LOU-NH91 | 0.883 | 0.857 | 0.754 | 0.455 | 0.774 | 0.663 | 0.628 | 0.348 | 1.08 | 0.917 | 0.758 | 0.347 | 0.792 | 0.676 | 0.452 | 0.322 | 0.615 | 0.481 | 0.36 | 0.295
NCI-H1944 | 0.481 | 0.424 | 0.292 | 0.0999 | 0.203 | 0.19 | 0.146 | 0.123 | 0.832 | 0.594 | 0.321 | 0.142 | 0.849 | 0.566 | 0.409 | 0.151 | 0.239 | 0.221 | 0.132 | 0.0956
HCC-366 | 0.412 | 0.333 | 0.062 | 0.0267 | 0.689 | 0.605 | 0.338 | 0.0385 | 1.03 | 0.333 | 0.0524 | 0.0624 | 0.456 | 0.36 | 0.0363 | 0.0122 | 0.0967 | 0.0579 | 0.033 | 0.031
SW 1573 | 0.709 | 0.596 | 0.357 | 0.0536 | 0.613 | 0.556 | 0.355 | 0.0821 | 1.29 | 1.07 | 0.75 | 0.15 | 1.03 | 0.901 | 0.587 | 0.147 | 0.19 | 0.266 | 0.155 | 0.0644
SK-MES-1 | 0.728 | 0.71 | 0.454 | 0.239 | 0.719 | 0.723 | 0.517 | 0.207 | 1.14 | 1.04 | 0.778 | 0.249 | 0.948 | 0.904 | 0.437 | 0.144 | 0.86 | 0.662 | 0.235 | 0.136
NCI-H1993 | 0.649 | 0.61 | 0.548 | 0.36 | 0.436 | 0.491 | 0.588 | 0.464 | 0.84 | 0.801 | 0.747 | 0.494 | 0.737 | 0.691 | 0.562 | 0.522 | 0.633 | 0.608 | 0.489 | 0.457
NCI-H1703 |  |  |  |  |  |  |  |  | 0.418 | 0.599 | 0.632 | 0.277 | 0.469 | 0.525 | 0.594 | 0.156 |  |  |  | 
HARA | 1.06 | 0.576 | 0.18 | 0.0921 | 0.443 | 0.364 | 0.231 | 0.0679 | 0.965 | 0.495 | 0.151 | 0.0596 | 0.949 | 0.761 | 0.174 | 0.0907 | 0.139 | 0.104 | 0.0618 | 0.0739
COR-L23 | 0.79 | 0.447 | 0.159 | 0.0825 | 0.368 | 0.322 | 0.107 | 0.0712 | 1.02 | 0.671 | 0.152 | 0.0834 | 0.834 | 0.372 | 0.0994 | 0.0715 | 0.19 | 0.0976 | 0.105 | 0.0594
NCI-H1355 | 0.484 | 0.331 | 0.231 | 0.131 | 0.471 | 0.411 | 0.333 | 0.179 | 1.05 | 1.01 | 0.562 | 0.156 | 1.1 | 0.691 | 0.321 | 0.145 | 0.529 | 0.315 | 0.188 | 0.129
NCI-H1437 | 0.481 | 0.368 | 0.23 | 0.155 | 0.302 | 0.246 | 0.168 | 0.178 | 1.25 | 1.22 | 0.546 | 0.171 | 0.858 | 0.738 | 0.152 | 0.104 | 0.371 | 0.338 | 0.18 | 0.104
NCI-H2023 | 0.65 | 0.422 | 0.184 | 0.07 | 0.444 | 0.442 | 0.192 | 0.0722 | 1.13 | 0.82 | 0.31 | 0.0629 | 0.623 | 0.509 | 0.292 | 0.0757 | 0.364 | 0.215 | 0.11 | 0.0623
HOP-62 | 0.509 | 0.406 | 0.16 | 0.0861 | 0.815 | 0.592 | 0.319 | 0.114 | 1.03 | 1.1 | 0.365 | 0.122 | 1.25 | 0.947 | 0.49 | 0.0804 | 0.405 | 0.32 | 0.116 | 0.08
SW 900 | 0.739 | 0.703 | 0.249 | 0.129 | 0.73 | 0.391 | 0.322 | 0.091 | 0.925 | 0.927 | 0.644 | 0.111 |  |  |  |  | 0.584 | 0.315 | 0.213 | 0.113
A549 |  |  |  |  | 0.17 | 0.168 | 0.0474 | 0.0242 | 0.929 | 0.478 | 0.0393 | 0.0151 | 0.861 | 0.802 | 0.104 | 0.0282 |  |  |  | 
HCC-44 | 1.11 | 0.968 | 0.91 | 0.286 | 0.147 | 0.108 | 0.0733 | 0.0646 |  |  |  |  | 0.896 | 0.587 | 0.186 | 0.0876 | 1.1 | 0.296 | 0.184 | 0.141
NCI-H1792 | 0.292 | 0.257 | 0.145 | 0.0464 | 0.269 | 0.228 | 0.0757 | 0.0593 |  |  |  |  | 0.742 | 0.55 | 0.207 | 0.0419 |  |  |  | 
NCI-H522 | 0.93 | 0.706 | 0.707 | 0.263 | 0.728 | 0.593 | 0.602 | 0.252 |  |  |  |  |  |  |  |  | 0.644 | 0.457 | 0.302 | 0.141
IA-LM |  |  |  |  |  |  |  |  | 1.17 | 1.14 | 0.342 | 0.039 | 0.769 | 0.512 | 0.224 | 0.0622 |  |  |  | 
